Consider three compounds from US20040152685A1, “Agents and methods for the prevention of initial onset and recurrence of existing cancers” (priority 2001, published 2004).

Type in all cases: cell-based
One assay deals with LNCaP cells. Briefly: Cell growth of LNCaP prostate cancer cells after treatment. Conditions: for inhibition of growth of LNCaP cells: 72 hours of treatment, FIG. 7. Here is the method:
Cells were treated with either eugenol (0.25, 0.5, 0.75 or 1 mM) or 2-ME (0.5, 1, 2 or 3 mM) or both (0.25, 0.5, 0.75 or 1 mM of eugenol along with 0.5 mM of 2-ME). Cell growth was measured following 72 hours of treatment as described above.

The test system of assay [1] is prostate cancer cell lines (LNCaP, DU145) and brain and/or nervous system cancer cell line (DAOY). Briefly: Cell proliferation of prostate and brain/nervous system cancer cell lines. Conditions: DU145, DAOY cells.
Description: (§1) In a multitude of experiments, using prostate cancer cell lines (both androgen-dependent (LNCaP), and androgen-independent (DU145) cells), and a brain and/or nervous system cancer cell line (DAOY), the present inventors have studied the effects of 2-ME and 16-ES on cell proliferation and the induction of apoptosis, in a number of ways.
For assay [2] the test system is unchanged. Nature of the assay: Induction of apoptosis in prostate and brain/nervous system cancer cell lines. Conditions: DU145, DAOY cells.
Description: as §1
The test system of a further assay is DU145 cells. Nature of the assay: Cell growth of DU145 prostate cancer cells after treatment. The settings on record: Homo sapiens, DU-145, FIG. 6, read-out: concentration necessary to see 50% inhibition of growth.

“Also recorded” adds a separate entry of the source.

Consider `COc1cc2c(cc1O)CC[C@@H]1[C@@H]2CC[C@]2(C)[C@@H](O)CC[C@@H]12` [2-ME, 2-methoxyoestradiol], for which the “inhibition of growth of LNCaP cells” value in the assay with LNCaP cells (0.5 mM of 2-ME) is reported as “about 20%”. In addition, the “inhibition of cancerous cell growth” value in assay [1] is “significantly inhibits cancerous cell growth; also recorded: inhibits the growth”. Also, the pro-apoptotic effects result in assay [2] was “has pro-apoptotic effects”.
As for `C[C@]12CC[C@@H]3c4ccc(O)cc4CC[C@H]3[C@@H]1C[C@H](O)[C@@H]2O` [16-ES, 16-epiestriol], the “inhibition of cancerous cell growth” value in assay [1] is “does not”. Also, the pro-apoptotic effects entry in assay [2] is listed as “does not”.
As to `C=CCc1ccc(O)c(OC)c1` [eugenol], in the assay on LNCaP cells (0.25 mM of eugenol), the “inhibition of growth of LNCaP cells” value is “about 30%”. The IC50 is ~750 µM with LNCaP cells (Homo sapiens, LNCaP, read-out: concentration necessary to see 50% inhibition of growth) and > 2000 µM in the assay with DU145 cells.
